Test results from the SangsterLogP compilation.

conditions: not given

| SMILES | logP |
| --- | --- |
| CN(C)/C=C/[N+](=O)[O-] | -0.8 |
| Cc1ccc(O)c(-n2nc3ccccc3n2)c1 | 4.31 |
| COc1ccccc1C(C)=O | 1.82 |
| CCCCNC(=S)N(CCCC)CCCC | 3.68 |
| Fc1cccc(F)n1 | 1.17 |
| CC(=O)N[C@@H](CC(C)C)C(=O)N[C@@H](CCCNC(=N)N)C(=O)N[C@@H](Cc1ccccc1)C(N)=O | -0.06 |
| COC(=O)Nc1c(C(C)C)cccc1C(C)C | 2.2 |
| COC(=O)CC#N | -0.47 |
| COc1ccc(CC#N)cc1OC | 1.15 |
| c1ccc(N2CCCC2)cc1 | 3.56 |
| O=C(O)Cc1csc(-c2ccc(Cl)cc2)n1 | 3.29 |
| COC(=O)C(F)(F)F | 0.6 |
| O=Cc1ccccn1 | 0.44 |
| O=C1C(Cl)C(CCl)CN1c1cccc(C(F)(F)F)c1 (configuration not stated) | 3.36 |
| O=C(O)COc1ccc(N2Cc3ccccc3C2=O)cc1 | 3.58 |
| Clc1cc(Cl)c2c(Cl)ccc(Cl)c2c1 | 5.76 |
| Cc1c(Cl)cc(-c2ccc(=O)[nH]n2)cc1Cl | 3.2 |
| CCN(CC)S(=O)(=O)c1ccc(OC)c(N)c1 | 1.7 |
| Cn1c(N)nc2cc(Cl)ccc21 | 2.09 |
| COC(=O)c1cc(Cl)ccc1N | 3.3 |

| SMILES | logP |
| --- | --- |
| Clc1nc(Cl)nc(Nc2ccccc2Cl)n1 | 3 |
| Cc1ccc(/C=N/O)cc1 | 2.4 |
| O=S1(=O)OCC2C(CO1)C1(Cl)C(Cl)=C(Cl)C2(Cl)C1(Cl)Cl (configuration not stated) | 3.66 |
| NC(=O)OCCc1cccc2c1C(=O)C(Br)=C(N1CC1)C2=O | 0.68 |
| CCOC(=O)NNc1ccccc1 | 1.22 |
| Cn1c(N)nc2cc(C#N)ccc21 | 1.11 |
| CN(C)/C=C/C#N | 0.47 |
| FN(F)C(c1ccccc1)(c1ccccc1)c1ccccc1 | 3.73 |
| OCCCCl | 0.5 |
| Nc1ccc(S)cc1 | 1.31 |
| CS(=O)(=O)ON1C(=O)c2ccc([N+](=O)[O-])cc2C1=O | 1.71 |
| O=c1c2ccccc2oc2ccccc12 | 3.39 |
| Cc1cccc(OCc2ccccc2)n1 | 3.43 |
| Cn1ccc(=O)n(C)c1=O | -0.54 |
| OCCCO | -1.04 |
| N#CCc1cccc(Oc2ccccc2)c1 | 3.03 |
| CC(C)(NC(=O)C(Br)C(C)(C)C)c1ccccc1 (configuration not stated) | 3.46 |
| COc1ccc(CC#N)cc1 | 1.7 |
| CC(C(=O)O)c1ccc(N2C(=O)C3CCCCC3C2O)cc1 (configuration not stated) | 2.95 |

same assay, conditions: pH 1.0

| SMILES | logD |
| --- | --- |
| O=C(O)c1cc2ccccc2o1 | 2.41 |

same assay, conditions: pH 3.5

| SMILES | logD |
| --- | --- |
| C1CCC(Cc2nnn[nH]2)CC1 | 1.59 |

same assay, conditions: pH 4.0

| SMILES | logD |
| --- | --- |
| FC(F)(F)C(=NNc1ccc(Cl)c(Cl)c1)C(F)(F)F | 5.1 |
| O=[N+]([O-])c1ccc(NN=C(C(F)(F)F)C(F)(F)F)c(C(F)(F)F)c1 | 4.6 |
| O=[N+]([O-])c1ccc(NN=C(C(F)(F)F)C(F)(F)F)c([N+](=O)[O-])c1 | 3.8 |

same assay, conditions: pH 7.0

| SMILES | logD |
| --- | --- |
| Cc1cn([C@@H]2O[C@H](CO)[C@@H](O)[C@H]2O)c(=O)nc1N | -2.01 |
| Nc1nc2c(ncn2[C@@H]2O[C@H](CO)[C@@H](O)[C@@H]2F)c(=O)[nH]1 | -1.18 |
| Nc1nc(=O)n([C@H]2CC[C@@H](CO)O2)cc1Br | -0.48 |
| COc1ccc2c(c1OC)-c1ccc(OC)c(=O)cc1[C@@H](NC(C)=O)CC2 | 1.02 |

same assay, conditions: pH 7.4

| SMILES | logD |
| --- | --- |
| Cn1c([N+](=O)[O-])cnc1-c1ccc(F)cc1 | 1.83 |
| CN(C(F)(F)F)S(=O)(=O)CCCn1ccnc1C=NO | 1.77 |
| O=C(Cn1ccnc1[N+](=O)[O-])NCc1ccccc1 | 0.85 |
| COC(=S)NCCn1c([N+](=O)[O-])cnc1C | 1.09 |
| CCCCCc1ccc(N)cc1 | 3.39 |
| COC(=O)NCCn1c([N+](=O)[O-])cnc1C | 0.02 |

same assay, conditions: pH 9.2

| SMILES | logD |
| --- | --- |
| C=CCOC(Cn1ccnc1)c1ccc(Cl)cc1Cl (configuration not stated) | 3.82 |

same assay, conditions: pH 11.0

| SMILES | logD |
| --- | --- |
| C[C@@H]([C@H](O)c1ccccc1)N(C)C | 1.7 |

same assay, conditions: pH 12.0

| SMILES | logD |
| --- | --- |
| Nc1ccc2cc3ccc(N)cc3nc2c1 | 1.83 |

same assay, conditions: pH 13.0

| SMILES | logD |
| --- | --- |
| C1CCC2=NCCCN2CC1 | 1.38 |
| CCc1cc(Cc2cnc(N)nc2N)cc(CC)c1N | 1.82 |
| CCOC(OCC)OCC | 1.2 |
| Nc1ncc(Cc2ccccc2Cl)c(N)n1 | 2.24 |
| OCCNCc1ccccc1 | 0.79 |
